Reference: patent US20200139012A1, “METHODS AND MATERIALS FOR IMMUNOMODULATION OF TISSUE GRAFTS” (UNIVERSITY OF WYOMING, priority 2018, published 2020)

Assays:
[1] = Table 1; cited from earlier work
immune cells = settings: cited from earlier work; for in vitro effective concentration on immune cells: Table 1
[2] = tested on: DRGs, motor neurons, and Schwann cells; settings: 72 h; for Measures in vitro tolerated concentrations on PN cells: rat
Description: It is contemplated that delivery of immunosuppressive agents function within a favorable therapeutic window. PNs are comprised of three major nervous system cell types, motor neurons, sensory neurons, and Schwann cells. […] FIG. 1B illustrates data regarding the toxicity of tacrolimus to DRGs, motor neurons, and Schwann cells. FIG. 1C illustrates data regarding the toxicity of prednisolone to DRGs, motor neurons, and Schwann cells.
Cells (DRGs, motor neurons, and Schwann cells) were cultured for 72 hours in various concentration of the immunosuppressive drugs and viability was evaluated using the Alamar blue viability assay. ISV's were diluted into media using a maximum of 1% dimethylsulfoxide (DMSO).
FIG. 2B illustrates data regarding the viability of DRGs, motor neurons, and Schwann cells cultured in about 10 μM tracrolimus with differing concentrations of prednisolone.

## C=CC[C@@H]1/C=C(\C)C[C@H](C)C[C@H](OC)[C@H]2O[C@@](O)(C(=O)C(=O)N3CCCC[C@H]3C(=O)O[C@H](/C(C)=C/[C@@H]3CC[C@@H](O)[C@H](OC)C3)[C@H](C)[C@@H](O)CC1=O)[C@H](C)C[C@@H]2OC [Tacrolimus, tacrolimus]
[1]
  Effective clinical plasma concentration: 21 nM
Immune cells
  in vitro effective concentration on immune cells: 0.5 to 1.0 nM
  effective dose for inhibiting activation and proliferation of immune cells: 50 to 100 µM
[2]
  tolerated by the cells at doses up to: 10 to 25 µM
  Measures in vitro tolerated concentrations on PN cells: 10 to 25 µM

## C[C@]12C=CC(=O)C=C1CC[C@@H]1[C@@H]2[C@@H](O)C[C@@]2(C)[C@H]1CC[C@]2(O)C(=O)CO [Prednisolone, prednisolone]
[1]
  Effective clinical plasma concentration: 277 nM
Immune cells
  in vitro effective concentration on immune cells: 240 nM
  effective dose for inhibiting activation and proliferation of immune cells: greater than 240 μM
[2]
  tolerated by the cells at doses up to: up to 200 μM
  Measures in vitro tolerated concentrations on PN cells: 200 µM
